For 1 substance, MIC results are on record in patent US6605630B1, “Antibiotic oxazolidinone derivatives” (Syngenta Limited, priority 1997, dated 2003).

The subject of experiment [1] is Coagulase Negative Staphylococci MR. The procedure:
(§1) The activity is described in terms of the minimum inhibitory concentration (MIC) determined by the agar-dilution technique with an inoculum size of 10^4 CFU/spot.
(§2) Staphylococci were tested on agar, using an inoculum of 10^4 CFU/spot and an incubation temperature of 37° C. for 24 hours-standard test conditions for the expression of methicillin resistance.

For experiment [2], the system named is Coagulase Negative Staphylococci MS. The procedure:
as §1, §2

For experiment [3], the system named is Staphylococcus aureus MRQR. The procedure:
as §1, §2

Experiment [4] relates to Staphylococcus aureus Novb. Res. The procedure: as §1, §2
The test system of experiment [5] is Staphylococcus aureus Oxford. The procedure: as §1, §2
The subject of a further experiment is Enterococcus faecalis. As to conditions: agar with 5% defibrinated horse blood, 10^4 CFU/spot, 37° C., 5% carbon dioxide, 48 hours. The procedure: as §1
(§3) Streptococci and enterococci were tested on agar supplemented with 5% defibrinated horse blood, an inoculum of 10^4 CFU/spot and an incubation temperature of 37° C. in an atmosphere of 5% carbon dioxide for 48 hours-blood is required for the growth of some of the test organisms.

The subject of experiment [6] is Streptococcus pyogenes C203. As to conditions: agar with 5% defibrinated horse blood, 10^4 CFU/spot, 37° C., 5% carbon dioxide, 48 hours. The procedure: as §1, §3
The subject of the next experiment is Bacillus subtilis.
Description: as §1

As to “N-((5S)-3-(4-((7aS)[3H,5H]-3-oxo-1,7a-Dihydropyrrolol[1,2c]oxazol-6-yl)phenyl)-2-oxooxazolidin-5-ylmethyl)acetamide [Example 44]”, the MIC in experiment [1] was 0.50 µg/mL; in experiment [2], 0.13 µg/mL; in experiment [3], 2.00 µg/mL; in experiment [4], 0.50 µg/mL; in experiment [5], 0.25 µg/mL; in the experiment on Enterococcus faecalis it was 0.50 µg/mL. Besides, the results for the MIC (in experiment [6]; against Bacillus subtilis) were 0.13 µg/mL and 0.50 µg/mL, respectively.

As a reminder, the MIC is the lowest concentration that inhibits growth of the organism. A low value points to inhibition by little substance.
